Measurements taken from US9493466B2, “Treatment of cancer with TOR kinase inhibitors” (Signal Pharmaceuticals, LLC, priority 2011, dated 2016).

What was measured:
[1] = test system: PC-3, A549, HCT 116, U87-MG, MDA-MB-231, NCI-H23, NCI-H460, T47D; assay: Growth inhibition assay for cell lines with varying sensitivity to rapamycin; format: cell-based; settings: 3 days; including cell types partially sensitive or insensitive to Rapamycin; FIG. 8
Description: Growth Inhibition Assay for Cell Lines with Varying Sensitivity to Rapamycin (Compound 1). Cells were plated in 96-well plates at densities determined for each cell line and the following day were treated with a range of Compound 1 concentrations. The cells were incubated for 3 days at 37° C. and then […] of WST-1 (Roche) for PC-3, A549, HCT 116, U87-MG, MDA-MB-231, and NCI-H23) or […] CellTiter-Glo reagent (Promega) for NCI-H460, T47D) was added to each well and the assay was completed according to manufacturer protocols. The percentage inhibition at each concentration of compound was normalized to the DMSO control values. The percentage inhibition was determined for each replicate and then the 3 values were averaged for each set of triplicate wells. All data were analyzed using XLfit from IDBS. The formula used for determining IC50 in Xlfit was model number 205, which utilizes a 4-parameter logistic model or sigmoidal dose-response model to calculate IC50 values. IC50 values are reported as an average.
Rapamycin effects on proliferation tend to plateau in most cell lines.

[2] = Phase 1/2 study Part A: pharmacokinetics; format: in vivo, human
Description: During the first cycle only in Part A, each subject will be administered a single dose of Compound 1 (Day −1), followed by a 48-hour observation and PK sampling period, followed on Day 1 by daily uninterrupted dosing for 28 days (Cycle 1=30 days). In subsequent Part A cycles, subjects are treated in 28-day cycles with continuous dosing from Day 1 to 28. In Part B, subjects will receive continuous dosing for 28 days from the beginning—there is neither an initial observation period nor a 48-hour PK collection.

SU-DHL-10 = assay: Growth inhibition assay for NHL lines; format: cell-based; settings: SU-DHL-10, NHL DLBCL, 96 hours, n ≧ 3
Description: (§1) Growth Inhibition Assay for HCC and NHL Lines. The seeding density for each cell line was optimized to ensure assay linearity in 384-well plates.
(§2) Compound 1 was dissolved in dimethyl sulfoxide (DMSO) to prepare a 10 mM stock solution. A serial titration was performed to produce a working concentration range of […] to 10 mM. Aliquots to produce final concentrations of 1.5 nM to 10 μM were spotted via an acoustic dispenser (EDC ATS-100) into an empty 384-well plate. Compound 1 was spotted in a 10-point serial dilution fashion (3-fold dilution) in duplicate within the plate. The DMSO concentration was kept constant for a final assay concentration of 0.1% DMSO. Plates were replicated for use with different cell lines and testing periods. After compound plate replication, all plates were sealed (Agilent ThermoLoc) and stored at −20° C. for up to 1 month. […] When ready for testing, plates were removed from the freezer, thawed, and unsealed just prior to the addition of the test cells. Prior to testing, cells were grown and expanded in culture flasks to provide sufficient amounts of starting material. Cells were then diluted to the appropriate densities and added directly to the compound-spotted 384-well plates. Cells were allowed to grow for 96 hours at 37° C./5% CO2. At the time when compound was added (t0), initial cell number was assessed via a viability assay (Cell Titer-Glo) by quantifying the level of luminescence generated by ATP present in viable cells. After 96 hours, cell viability of compound-treated cells was assessed via Cell Titer-Glo and luminescence measurement. Cell lines were assayed for growth inhibition by Compound 1 in at least 3 independent tests. A control cell line (the lung tumor cell line, A549) was included in each of the assays. The compound response against this control cell line was monitored closely to enable comparison of the data generated through the assay period. All data were normalized and presented as a percentage of the DMSO-treated cells. Results were then expressed as a GI50 value. The GI50 value corrects for the cell count at time zero. In addition, the IC50 value of Compound 1 for each cell line was calculated.

OCI-LY-10 = assay: Growth inhibition assay for NHL lines; format: cell-based; settings: OCI-LY-10, NHL DLBCL, 96 hours, n ≧ 3
Description: as §1, §2

RIVA = assay: Growth inhibition assay for NHL lines; format: cell-based; settings: NHL DLBCL, 96 hours, n ≧ 3
Description: as §1, §2

JEKO-1 = assay: Growth inhibition assay for NHL lines; format: cell-based; settings: JEKO-1, NHL MCL, 96 hours, n ≧ 3
Description: as §1, §2

SU-DHL-5 = assay: Growth inhibition assay for NHL lines; format: cell-based; settings: SU-DHL-5, NHL DLBCL, 96 hours, n ≧ 3
Description: as §1, §2

OCI-LY-19 = assay: Growth inhibition assay for NHL lines; format: cell-based; settings: OCI-LY-19, NHL DLBCL, 96 hours, n ≧ 3
Description: as §1, §2

REC-1 = assay: Growth inhibition assay for NHL lines; format: cell-based; settings: REC-1, NHL MCL, 96 hours, n ≧ 3
Description: as §1, §2

SU-DHL-1 = assay: Growth inhibition assay for NHL lines; format: cell-based; settings: SU-DHL-1, ALCL T-cell, 96 hours, n ≧ 3
Description: as §1, §2

MOLM-13 = assay: Growth inhibition assay for NHL lines; format: cell-based; settings: MOLM-13, Leukemia M-AML, 96 hours, n ≧ 3
Description: as §1, §2

KARPAS-299 = assay: Growth inhibition assay for NHL lines; format: cell-based; settings: KARPAS-299, ALCL T-cell, 96 hours, n ≧ 3
Description: as §1, §2

KASUMI-1 = assay: Growth inhibition assay for NHL lines; format: cell-based; settings: KASUMI-1, Leukemia M-AML, 96 hours, n ≧ 3
Description: as §1, §2

THP-1 = assay: Growth inhibition assay for NHL lines; format: cell-based; settings: THP-1, Leukemia M-AML, 96 hours, n ≧ 3
Description: as §1, §2

SC-1 = assay: Growth inhibition assay for NHL lines; format: cell-based; settings: SC-1, NHL FL, 96 hours, n ≧ 3
Description: as §1, §2

Granta-519 = assay: Growth inhibition assay for NHL lines; format: cell-based; settings: Granta-519, NHL MCL, 96 hours, n ≧ 3
Description: as §1, §2

In the case of `CO[C@H]1CC[C@H](N2C(=O)CNc3ncc(-c4ccc(C(C)(C)O)nc4)nc32)CC1` [Compound 1, 7-(6-(2-hydroxypropan-2-yl)pyridin-3-yl)-1-((1r,4r)-4-methoxycyclohexyl)-3,4-dihydropyrazino-[2,3-b]pyrazin-2(1H)-one], the cell growth inhibition [1] is reported as “potent cell growth inhibition”, the “mean steady state Cmax” value ([2]; 45 mg, day 15) is reported as 485 ng/mL and the AUC0-24 ([2]; 45 mg, mean steady state) is reported as 2371 ng^xhr/mL. The drug accumulation ([2]; after 15 days of dosing) was “only minimal drug accumulation”, the “exposures versus levels estimated to provide >50% inhibition of TORC1 (pS6) and TORC2 (pAKT) for at least 8 hours” value ([2]; dose levels of 30 mg and higher, estimate from preclinical xenograft models) was “exceeded” and the “drug exposure versus dose” value ([2]; high intersubject variability) was “Dose proportional”. The GI50 (SU-DHL-10) was 200 ± 20 nM, the IC50 (SU-DHL-10) was 200 ± 30 nM and the GI50 (OCI-LY-10) was 140 ± 40 nM. For the same molecule, the IC50 (OCI-LY-10) was 190 ± 40 nM, the GI50 (RIVA) was 20 ± 10 nM and the IC50 (RIVA) was 100 ± 50 nM. For the same molecule, the GI50 (JEKO-1) was 70 ± 40 nM, the IC50 (JEKO-1) was 100 ± 50 nM and the GI50 (SU-DHL-5) was 230 ± 130 nM. For the same molecule, the IC50 (SU-DHL-5) was 260 ± 140 nM, the GI50 (OCI-LY-19) was 220 ± 60 nM and the IC50 (OCI-LY-19) was 350 ± 80 nM. For the same molecule, the GI50 (REC-1) was 200 ± 40 nM, the IC50 (REC-1) was 260 ± 50 nM and the GI50 (SU-DHL-1) was 320 ± 20 nM. For the same molecule, the IC50 (SU-DHL-1) was 390 ± 30 nM, the GI50 (MOLM-13) was 110 ± 20 nM and the IC50 (MOLM-13) was 140 ± 20 nM. It also gave a GI50 (KARPAS-299) of 330 ± 120 nM, an IC50 (KARPAS-299) of 470 ± 220 nM and a GI50 (KASUMI-1) of 40 ± 20 nM. The IC50 (KASUMI-1) was 120 ± 30 nM, the GI50 (THP-1) was 230 ± 110 nM and the IC50 (THP-1) was 570 ± 160 nM. The GI50 (SC-1) was 180 ± 10 nM, the IC50 (SC-1) was 200 ± 10 nM and the GI50 (Granta-519) was 380 ± 80 nM. It also gave an IC50 (Granta-519) of 960 ± 100 nM.
